# Like-named read-outs stand apart in the source and are kept apart here.
# Legend:
# [1] = tested on: Phytophthora infestans; assay type: in vivo; details: solo compound
# [2] = tested on: Plasmopara viticola; test: Activity against Plasmopara viticola on grape (cv Gutedel) leaf discs (Example B-2); details: solo compound
# Excerpt: The action to be expected E for a given active ingredient combination obeys the so-called COLBY formula and can be calculated as follows (COLBY, S. R. “Calculating synergistic and antagonistic responses of herbicide combination”. Weeds, Vol. 15, pages 20-22; 1967):
# According to COLBY, the expected (additive) action of active ingredients A)+B) using p+q ppm of active ingredient is [formula]
# If the action actually observed (O) is greater than the expected action (E), then the action of the combination is super-additive, i.e. there is a synergistic effect. In mathematical terms the synergism factor SF corresponds to O/E. In the agricultural practice an SF of ≧1.2 indicates significant improvement over the purely complementary addition of activities (expected activity), while an SF of ≦0.9 in the practical application routine signals a loss of activity compared to the expected activity.
# The efficacy of the mixtures against Plasmopara viticola may be determined in micro scale on grape leaf discs in 24-well plates (repeated on 4 discs per variation). […] The inoculation is done by spraying the sporangial suspension (70 000 sp/ml) on the lower leaf side. The infected (sporulating) area of each leaf disc is measured 7-8 days after incubation (under standard conditions in a climatic chamber +18° C., 12 hours day/night cycle) as a %-value of the total leaf disc area. The activity is calculated as a %-value relative to the disease rate on fully infected, untreated grape leave discs. The expected fungicide interactions of the components in the mixtures (E-values) are calculated according to the method of Colby.
molecule,measurement,setting,value
"O=[N+]([O-])c1cc(C(F)(F)F)c(Cl)c([N+](=O)[O-])c1Nc1ncc(C(F)(F)F)cc1Cl [III, fluazinam]",observed activity (O in %),[1]; 0.025 ppm,0%
same,observed activity (O in %),[1]; 0.05 ppm,0%
same,observed activity (O in %),[1]; 0.5 ppm,29%
"COCC(=O)N(c1c(C)cccc1C)[C@H](C)C(=O)OC [IIa, metalaxyl-M]",observed activity (O in %),[2]; 0.025 ppm,3%
same,observed activity (O in %),[2]; 0.05 ppm,5%
same,observed activity (O in %),[2]; 0.1 ppm,9%
"COc1ccc(C(=CC(=O)N2CCOCC2)c2ccc(Cl)cc2)cc1OC [IX, dimethomorph]",observed activity (O in %),[2]; 0.01 ppm,0%
same,observed activity (O in %),[2]; 0.05 ppm,14%
same,observed activity (O in %),[2]; 1 ppm,62%
"N#Cc1c(Cl)c(Cl)c(Cl)c(C#N)c1Cl [V, chlorothalonil]",observed activity (O in %),[1]; 0.5 ppm,0%
"CO/C=C(/C(=O)OC)c1ccccc1Oc1cc(Oc2ccccc2C#N)ncn1 [VIa, azoxystrobin]",observed activity (O in %),[2]; 0.01 ppm,0%
"CCNC(=O)NC(=O)C(C#N)=NOC [XI, cymoxanil]",observed activity (O in %),[2]; 0.01 ppm,0%
same,observed activity (O in %),[2]; 0.025 ppm,8%
mancozeb [IV],observed activity (O in %),[2]; 0.25 ppm,3%
same,observed activity (O in %),[2]; 0.5 ppm,15%

# Reference: US20030189958A1 (priority 2000, published 2003)
